Results taken from patent publication US20250017834A1, “SUNSCREEN COMPOSITIONS COMPRISING IMINE ANALOGS OF A SUNSCREEN COMPRISING A KETONE” (Curie Co. Inc., priority 2020, published 2025).
Values belong to the compound of their own block, whether it stands above or below them.

Legend:
Type in all cases: physicochemical
[1] = UV/Vis spectral properties (UVA, UVB and visible absorption), Cary-50 spectrophotometer; settings: for UV absorption properties compared to oxybenzone: 5 mM or 0.05 mM, FIG. 1; for Absorption spectra compared to oxybenzone: 5 mM (N-Boc-Imine-6 also 0.05 mM), FIG. 3
Description: Imine-1, Imine-2, and Imine-3 were synthesized, purified, and isolated (see above). All three compounds were separately dissolved in acetonitrile to a final concentration of 5 mM (FIG. 1) or 0.05 mM (FIG. 1, inset) and analyzed by UV/Vis (Cary-50 Spectrophotomer). The spectral properties were compared to oxybenzone in acetonitrile.
Carbamate-1, first described in U.S. Pat. No. 5,490,980A, was synthesized, purified, and isolated (see above). Carbamate-1 was dissolved in acetonitrile to a final concentration of 0.05 mM and analyzed by UV/Vis (Cary-50 Spectrophotomer). The spectral properties were compared to oxybenzone in acetonitrile at a final concentration of 0.05 mM.
Imine-4, Imine-5, and N-Boc-Imine-6 were synthesized, purified, and isolated (see above). All three compounds were separately dissolved in acetonitrile to a final concentration of 5 mM (FIG. 3) and analyzed by UV/Vis (Cary-50 Spectrophotomer). N-Boc-Imine-6 was diluted in acetonitrile to a final concentration of 0.05 mM (FIG. 3, inset) and analyzed by UV/Vis. […] Spectral properties were compared to oxybenzone in acetonitrile at the same concentration.
To understand the solution stability of the Boc-protected imines in protic solvent, N-Boc-Imine-6 was prepared in ethanol in the presence of catalytic glacial acetic acid. Briefly, to a solution of oxybenzone (0.10 g, 0.438 mmol, 1 eq) and N-Boc-1,6-hexanediamine (0.094 g, 0.43 mmol, 1 eq) in ethanol (0.3 mL) was added catalytic glacial acetic acid (1 μL). The reaction mixture was agitated at 900 rpm at 70° C. for 16 hr and monitored by LCMS. […] The reaction was then diluted in ethanol to final concentration of 0.04 mM and analyzed by UV/Vis spectroscopy.
N-Boc-Imine-8 and Imine-8 was synthesized, purified, and isolated (see above). N-Boc-Imine-8 and Imine-8 were dissolved in ethanol to a final concentration of 0.032 mM and 8 mM, respectively (FIG. 6) and analyzed by UV/Vis. (Cary-50 Spectrophotomer). Spectral properties were compared to sulisobenzone in ethanol at similar concentration.
Imine-10 was first dissolved in methyl tert-butyl ether and then diluted in ethanol to a final concentration of 5 mM and 0.04 mM (FIG. 7) and analyzed by UV/Vis. (Cary-50 Spectrophotomer). Spectral properties were compared to oxybenzone at similar concentration.

[2] = Solution stability of Boc-protected imine in protic solvent (ethanol), LCMS and UV/Vis; settings: 70° C., over 24 hours, catalytic glacial acetic acid
Description: To understand the solution stability of the Boc-protected imines in protic solvent, N-Boc-Imine-6 was prepared in ethanol in the presence of catalytic glacial acetic acid. Briefly, to a solution of oxybenzone (0.10 g, 0.438 mmol, 1 eq) and N-Boc-1,6-hexanediamine (0.094 g, 0.43 mmol, 1 eq) in ethanol (0.3 mL) was added catalytic glacial acetic acid (1 μL). The reaction mixture was agitated at 900 rpm at 70° C. for 16 hr and monitored by LCMS. Full reaction of the starting material to a single product peak was observed by LCMS indicating completion. The reaction was then diluted in ethanol to final concentration of 0.04 mM and analyzed by UV/Vis spectroscopy. […] Additionally, the Boc-protecting group remained intact throughout the reaction and UV/Vis analysis.

[3] = Solubility in acetonitrile

Compound: COc1ccc(/C(=N/c2ccccc2)c2ccccc2)c(O)c1 [Imine-2]
UV absorption properties compared to oxybenzone ([1]; acetonitrile): improved both UVA-1, UVA-2, and UVB absorption properties

Compound: CCCCCCOC(=O)c1ccccc1/C(=N/CCCCCCN)c1cccc(N(CC)CC)c1O [Imine-9]
Absorbance spectra of DHHB-derived imines ([1]; data not shown): red shift of the absorbance spectra, which extends to the visible region

Compound: COc1ccc(/C(=N/O)c2ccccc2)c(O)c1 [Imine-3]
UV absorption properties compared to oxybenzone ([1]; acetonitrile): loss in the UVA blocking and reduction in UVB blocking

Compound: COc1ccc(/C(=N/C(CCC(N)=O)C(=O)O)c2ccccc2)c(O)c1 (centres unmarked) [Imine-5]
Absorption spectra compared to oxybenzone ([1]; acetonitrile): encompassed the UVA-1, UVA-2, and UVB regions as well as the visible region of the spectrum (greater than 400 nm)

Compound: COc1ccc(C(=O)c2ccccc2)c(OC(=O)NCCCCCCNC(=O)OC(C)(C)C)c1 [Carbamate-1, reference compound]
UV filter properties compared to oxybenzone ([1]; acetonitrile, 0.05 mM, FIG. 2): UVA blocking was reduced

Solution stability without reversion to starting ketone and amine [2]: stable
Compound: COc1ccc(/C(=N/CCCCCCNC(=O)OC(C)(C)C)c2ccccc2)c(O)c1 [N-Boc-Imine-6]
Absorption spectra compared to oxybenzone ([1]; acetonitrile): encompassed the UVA-1, UVA-2, and UVB regions as well as the visible region of the spectrum (greater than 400 nm)
Absorption spectrum in ethanol ([1]; ethanol, 0.04 mM, reaction mixture diluted, FIG. 4): encompasses the UVA and UVB regions as well as the visible region of the spectrum (greater than 400 nm)

Compound: COc1cc(O)c(/C(=N\CCCCCCN)c2ccccc2)cc1S(=O)(=O)O [Imine-8]
Absorbance compared to sulisobenzone ([1]; ethanol, N-Boc-Imine-8 0.032 mM, Imine-8 8 mM, FIG. 6): retained absorbance in the UVB region and extended absorbance into the UVA region

Solubility in acetonitrile [3]: poor solubility
Compound: COc1ccc(/C(=N/CCCCCCN)c2ccccc2)c(O)c1 [Imine-6]

Compound: COc1ccc(/C(=N/Cc2ccccc2)c2ccccc2)c(O)c1 [Imine-1]
UV absorption properties compared to oxybenzone ([1]; acetonitrile): improved both UVA-1, UVA-2, and UVB absorption properties
